According to patent US5541163A, “Renin inhibiting N-(2-amino-2-oxoethyl)butanediamide derivatives” (Bio-Mega/Boehringer Ingelheim Research Inc., priority 1993, dated 1996):
Values belong to the molecule of their own block, whether it stands above or below them.

Target: T1, human renin (Homo sapiens, UniProt P00797)
T1 construct: A human plasma pool is used as the source of both the substrate (angiotensinogen) and the enzyme (renin); from tissue; host or cells: human plasma pool
T1 sequence (P00797 67-406): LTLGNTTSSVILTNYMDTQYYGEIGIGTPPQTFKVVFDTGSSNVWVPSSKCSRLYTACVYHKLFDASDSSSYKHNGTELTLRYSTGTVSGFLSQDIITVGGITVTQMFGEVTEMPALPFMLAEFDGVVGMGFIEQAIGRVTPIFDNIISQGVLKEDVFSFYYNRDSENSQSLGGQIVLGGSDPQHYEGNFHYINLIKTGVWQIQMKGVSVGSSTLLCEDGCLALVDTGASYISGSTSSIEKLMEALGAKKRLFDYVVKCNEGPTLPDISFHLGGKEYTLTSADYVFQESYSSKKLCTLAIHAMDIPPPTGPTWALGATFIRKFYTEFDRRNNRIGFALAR
Assay: Plasma renin assay (inhibition of human renin, angiotensin I by RIA)
Format: biochemical
Settings: human plasma pool, pH 6.0, 2 h incubation at 37°
Protocol: The assay is performed as follows: The test compound (i.e. the inhibitor) is dissolved in dimethylsulfoxide (1 mM stock solution) and diluted with an aqueous buffer solution of 270 mM 2-(N-morpholino)ethanesulfonic acid and 1% human serum albumin (pH 5.85, also containing dimercaprol and 8-hydroxyquinoline sulfate in accordance with the instructions of the RIA kit noted below) to give an assay mixture in which the final dimethylsulfoxide content is 1% (v/v).
A human plasma pool is used as the source of both the substrate (angiotensinogen) and the enzyme (renin). The reaction is initiated by the addition of 50 μL of human plasma pool to 50 μL of various concentrations of inhibitor in the 1% dimethylsulfoxide assay buffer. The plasma renin activity is measured by the amount of angiotensin I generated at pH 6.0 following a 2 h incubation at 37°.
Quantitation of angiotensin I is performed by radioimmunoassay (RIA kit from New England Nuclear-Dupont, Mississauga, ON, Canada). The enzymatic activity of renin is expressed in ng of angiotensin I generated (/mL/2 h). The extent of inhibition of the reaction is determined from the amount of angiotensin I generated in reference to a control prepared without inhibitor. Nonlinear regression analysis is used to calculate the IC50 values, i.e. the molar concentration of the test compound required to cause a 50% inhibition of the enzyme activity.

Compound: CC(C)C[C@H](O)[C@H](O)[C@H](CC1CCCCC1)NC(=O)[C@@H](CC(=O)N(CC(=O)N1CCOCC1)Cc1ccccc1)CC1CC1 [Compound 1, N^4-benzyl-N^4-(2-morpholino-2-oxoethyl)-N^1-[1(S)-(cyclohexylmethyl)-2(R),3(S)-dihydroxy-5-methylhexyl]-2(R)-(cyclopropylmethyl)butanediamide]
IC50: 0.094 µM

Compound: CC(C)C[C@H](O)[C@H](O)[C@H](CC1CCCCC1)NC(=O)[C@@H](CC(=O)N(CCCc1ccccc1)CC(=O)N(C)C)CC1CC1 [Compound 4, N^4-[2-(dimethylamino)-2-oxoethyl]-N^4-(3-phenylpropyl)-N^1-[1(S)-(cyclohexylmethyl)-2(R),3(S)-dihydroxy-5-methylhexyl]-2(R)-(cyclopropylmethyl)butanediamide]
IC50: 0.22 µM

Compound: CC(C)C[C@H](O)[C@H](O)[C@H](CC1CCCCC1)NC(=O)[C@@H](CC(=O)N(CC(=O)N(C)C(C)(C)C)Cc1ccccc1)CC1CC1 [Compound 5, N^4-benzyl-N^4 -{2-[methyl(1,1-dimethylethyl)amino]-2-oxoethyl}-N^1-[1(S)-(cyclohexylmethyl)-2(R),3(S)-dihydroxy-5-methylhexyl]-2(R)-(cyclopropylmethyl)butanediamide]
IC50: 0.29 µM

Compound: CNC(=O)CN(Cc1ccccc1)C(=O)C[C@@H](CC1CC1)C(=O)N[C@@H](CC1CCCCC1)[C@@H](O)[C@@H](O)CC(C)C [Compound 6, N^4-benzyl-N^4-[2-(methylamino)-2-oxoethyl]-N^1-[1(S)-(cyclohexylmethyl)-2(R),3(S)-dihydroxy-5-methylhexyl]-2(R)-(cyclopropylmethyl)butanediamide]
IC50: 0.35 µM

Compound: CC(C)C[C@H](O)[C@H](O)[C@H](CC1CCCCC1)NC(=O)[C@@H](CC(=O)N(CC(N)=O)Cc1ccccc1)CC1CC1 [Compound 7, N^4-(2-amino-2-oxoethyl)-N^4-benzyl-N^1-[1(S)-(cyclohexylmethyl)-2(R),3(S)-dihydroxy-5-methylhexyl]-2(R)-(cyclopropylmethyl)-butanediamide]
IC50: 0.395 µM

Compound: CC(C)C[C@H](O)[C@H](O)[C@H](CC1CCCCC1)NC(=O)[C@@H](CC(=O)N(CC(=O)N(C)C)Cc1cccc2ccccc12)CC1CC1 [Compound 9, N^4-[2-(dimethylamino)-2-oxoethyl]-N^4-(1-naphthylmethyl)-N^1-[1(S)-(cyclohexylmethyl)-2(R),3(S)-dihydroxy-5-methylhexyl]-2(R)-(cyclopropylmethyl)butanediamide]
IC50: 0.066 µM

Compound: COc1ccc(CN(CC(=O)N(C)C)C(=O)C[C@@H](CC2CC2)C(=O)N[C@@H](CC2CCCCC2)[C@@H](O)[C@@H](O)CC(C)C)cc1 [Compound 10, N^4-[2-(dimethylamino)-2-oxoethyl]-N^4-[(4-methoxyphenyl)methyl]-N^1-[1(S)-(cyclohexylmethyl)-2(R),3(S)-dihydroxy-5-methylhexyl]-2(R)-(cyclopropylmethyl)butanediamide]
IC50: 0.44 µM

Compound: CCN(CC)C(=O)CN(Cc1ccccc1)C(=O)C[C@@H](CC1CC1)C(=O)N[C@@H](CC1CCCCC1)[C@@H](O)[C@@H](O)CC(C)C [Compound 11, N^4-benzyl-N^4-[2-(diethylamino)-2-oxoethyl]-N^1-[1(S)-(cyclohexylmethyl)-2(R),3(S)-dihydroxy-5-methylhexyl]-2(R)-(cyclopropylmethyl)-butanediamide]
IC50: 0.14 µM

Compound: CC(C)C[C@H](O)[C@H](O)[C@H](CC1CCCCC1)NC(=O)[C@@H](CC(=O)N(CC(=O)N(C)C)Cc1ccccn1)CC1CC1 [Compound 13, N^4-[2-(dimethylamino)-2-oxoethyl]-N^4-(2-pyridinylmethyl)-N^1-[1(S)-(cyclohexylmethyl)-2(R),3(S)-dihydroxy-5-methylhexyl]-2(R)-(cyclopropylmethyl)butanediamide]
IC50: 0.12 µM

Compound: CC(C)C[C@H](O)[C@H](O)[C@H](CC1CCCCC1)NC(=O)[C@@H](CC(=O)N(CC(=O)N(C)C)Cc1cccnc1)CC1CC1 [Compound 14, N^4-[2-(dimethylamino)-2-oxoethyl]-N^4-(3-pyridinylmethyl)-N^1-[1(S)-(cyclohexylmethyl)-2(R),3(S)-dihydroxy-5-methylhexyl]-2(R)-(cyclopropylmethyl)butanediamide]
IC50: 0.35 µM

Compound: CC(C)C[C@H](O)[C@H](O)[C@H](CC1CCCCC1)NC(=O)[C@@H](CC(=O)N(CC(=O)N(C)C)[C@H](C)c1ccccc1)CC1CC1 [Compound 16, N^4-[2-(dimethylamino)-2-oxoethyl]-N^4-[1(R)-phenylethyl]-N^1-[1(S)-(cyclohexylmethyl)-2(R),3(S)-dihydroxy-5-methylhexyl]-2(R)-(cyclopropylmethyl)butanediamide]
IC50: 0.46 µM

Compound: CC(C)C[C@H](O)[C@H](O)[C@H](CC1CCCCC1)NC(=O)[C@@H](CC(=O)N(CC(=O)N(C)C)[C@@H](C)c1cccc2ccccc12)CC1CC1 [Compound 18, N^4-[2-(dimethylamino)-2-oxoethyl]-N^4-[1(S)-(1-naphthylethyl)]-N^1-[1(S)-(cyclohexylmethyl)-2(R),3(S)-dihydroxy-5-methylhexyl]-2(R)-(cyclopropylmethyl)butanediamide]
IC50: 0.17 µM

Compound: CC(C)C[C@H](O)[C@H](O)[C@H](CC1CCCCC1)NC(=O)[C@@H](CC(=O)N(CC(=O)N(C)C)C[C@H](C)c1ccccc1)CC1CC1 [Compound 19, N^4-[2-(dimethylamino)-2-oxoethyl]-N^4-[2(R)-phenylpropyl]-N^1-[1(S)-(cyclohexylmethyl)-2(R),3(S)-dihydroxy-5-methylhexyl]-2(R)-(cyclopropylmethyl)butanediamide]
IC50: 0.069 µM

More lines, in order of falling IC50, values ahead:

IC50: 0.066 µM
Compound: CON(C)C(=O)CN(Cc1ccccc1)C(=O)C[C@@H](CC1CC1)C(=O)N[C@@H](CC1CCCCC1)[C@@H](O)[C@@H](O)CC(C)C [Compound 8, N^4-benzyl-N^4 -{2-[(methoxy)methylamino]-2-oxoethyl}-N^1-[1(S)-(cyclohexylmethyl)-2(R),3(S)-dihydroxy-5-methylhexyl]-2(R)-(cyclopropylmethyl)butanediamide]

IC50: 0.059 µM
Compound: CC(C)C[C@H](O)[C@H](O)[C@H](CC1CCCCC1)NC(=O)[C@@H](CC(=O)N(CCc1ccccc1)CC(=O)N(C)C)CC1CC1 [Compound 3, N^4-[2-(dimethylamino)-2-oxoethyl]-N^4-(2-phenylethyl)-N^1-[1(S)-(cyclohexylmethyl)-2(R),3(S)-dihydroxy-5-methylhexyl]-2(R)-(cyclopropylmethyl)butanediamide]

IC50: 0.056 µM
Compound: CC(C)C[C@H](O)[C@H](O)[C@H](CC1CCCCC1)NC(=O)[C@@H](CC(=O)N(CC(=O)N(C)C)Cc1ccccc1)CC1CC1 [Compound 2, N^4-benzyl-N^4-[2-(dimethylamino)-2-oxoethyl]-N^1-[1(S)-(cyclohexylmethyl)-2(R),3(S)-dihydroxy-5-methylhexyl]-2(R)-(cyclopropylmethyl)butanediamide]

IC50: 0.034 µM
Compound: CC(C)C[C@H](O)[C@H](O)[C@H](CC1CCCCC1)NC(=O)[C@@H](CC(=O)N(CC(=O)N(C)CCc1ccccn1)Cc1ccccc1)CC1CC1 [Compound 12, N^4-benzyl-N^4 -{2-{methyl[2-(2-pyridinyl)ethyl]amino}-2-oxoethyl}-N^1-[1(S)-(cyclohexylmethyl)-2(R),3(S)-dihydroxy-5-methylhexyl]-2(R)-(cyclopropylmethyl)butanediamide]

IC50: 0.034 µM
Compound: CC(C)C[C@H](O)[C@H](O)[C@H](CC1CCCCC1)NC(=O)[C@@H](CC(=O)N(CC(=O)N(C)C)[C@@H](C)c1ccccc1)CC1CC1 [Compound 17, N^4-[2-(dimethylamino)-2-oxoethyl]-N^4-[1(S)-phenylethyl]-N^1-[1(S)-(cyclohexylmethyl)-2(R),3(S)-dihydroxy-5-methylhexyl]-2(R)-(cyclopropylmethyl)butanediamide]

IC50: 0.002 µM
Compound: CC(C)C[C@H](O)[C@H](O)[C@H](CC1CCCCC1)NC(=O)[C@@H](CC(=O)N(CC(=O)N(C)C)CC1CC2CCC1C2)Cc1cscn1 (mixture of isomers) [Compound 56, N^4 -{{1(S),2(R),4(S)-and 1(R),2(S),4(R)-{bicyclo[2.2.1]hept-2-yl}methyl}-N^4-[2-(dimethylamino)-2-oxoethyl]-N^1-[1(S)-(cyclohexylmethyl)-2(R),3(S)-dihydroxy-5-methylhexyl]-2(R)-(4-thiazolylmethyl)butanediamide]

IC50: 0.0005 µM
Compound: CC(C)C[C@H](O)[C@H](O)[C@H](CC1CCCCC1)NC(=O)[C@@H](CC(=O)N(CC(=O)N(C)CCN(C)C(=O)N1CCOCC1)[C@@H](C)c1ccccc1)Cc1csc(N)n1 [Compound 15, N^4 -{2-{methyl{2-[methyl(morpholinocarbonyl)amino]ethyl}amino}-2-oxoethyl}-N^4-[1(S)-phenylethyl]-N^1-[1(S)-(cyclohexylmethyl)-2(R),3(S)-dihydroxy-5-methylhexyl]-2(R)-[(2-amino-4-thiazolyl)methyl]butanediamide]
